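Values below derive from 48-hour exposures of cells grown in 96-well plates, with endpoints linearly interpolated between the two concentrations bracketing the appropriate inhibition level. TGI: concentration producing complete growth inhibition.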
Columns and labels:
Test in all cases: NCI tumour cell line growth inhibition, 48 h
[1] = system: 786-0 renal
[2] = system: A498 renal
[3] = system: A549 NSCLC
[4] = system: ACHN renal
[5] = system: CAKI-1 renal
[6] = system: CCRF-CEM leukemia
[7] = system: COLO 205 colon
[8] = system: DLD-1 colon
[9] = system: DMS 114 small cell lung
[10] = system: HCT-116 colon
[11] = system: HCT-15 colon
[12] = system: HOP-18 NSCLC
[13] = system: HOP-62 NSCLC
[14] = system: HOP-92 NSCLC
[15] = system: HT29 colon
[16] = system: IGROV1 ovarian
[17] = system: KM12 colon
[18] = system: KM20L2 colon
[19] = system: LOX IMVI melanoma
[20] = system: LXFL 529 NSCLC
[21] = system: M14 melanoma
[22] = system: M19-MEL melanoma
[23] = system: MALME-3M melanoma
[24] = system: MOLT-4 leukemia
[25] = system: NCI-H226 lung
[26] = system: NCI-H23 lung
[27] = system: NCI-H460 lung
[28] = system: NCI-H522 lung
[29] = system: OVCAR-3 ovarian
[30] = system: OVCAR-4 ovarian
[31] = system: OVCAR-5 ovarian
[32] = system: OVCAR-8 ovarian
[33] = system: RPMI-8226 leukemia
[34] = system: RXF-631 renal
[35] = system: SF-268 CNS
[36] = system: SF-295 CNS
[37] = system: SF-539 CNS
[38] = system: SK-MEL-2 melanoma
[39] = system: SK-MEL-28 melanoma
[40] = system: SK-MEL-5 melanoma
[41] = system: SK-OV-3 ovarian
[42] = system: SN12C renal
[43] = system: SNB-19 CNS
[44] = system: SNB-75 CNS
[45] = system: SNB-78 CNS
[46] = system: SR leukemia
[47] = system: SW-620 colon
[48] = system: TK-10 renal
[49] = system: U251 CNS
[50] = system: UACC-257 melanoma
[51] = system: UACC-62 melanoma
[52] = system: UO-31 renal
[53] = system: DMS 273 small cell lung
[54] = system: EKVX NSCLC
[55] = system: HCC-2998 colon
[56] = system: HL-60(TB) leukemia
[57] = system: K-562 leukemia
[58] = system: RXF 393 renal
[59] = system: XF 498 CNS

Measured: TGI

O=C(NC1CCCCC1)c1c(O)[nH]c(=S)[nH]c1=O
not listed: [53] | [54] | [55] | [56] | [57] | [58] | [59]
> 100 µM: all other assays above

O=c1[nH]cnc2c1nnn2CCCn1nnc2c(=O)[nH]cnc21
not listed: [23] | [34] | [44]
> 100 µM: all other assays above

O=C(O)CSc1n[nH]c(/C=C/c2ccccc2)n1
not listed: [34]
> 100 µM: all other assays above

O=c1/c(=C/c2cccc3ccccc23)sc2nc3ccccc3n12
not listed: [6] | [24] | [33] | [41] | [46] | [59]
> 100 µM: all other assays above

— PubChem BioAssay (NCI)
